Reference: BigSolDB 2.1

CCCCCCCCCCCC(=O)O
Details | solubility (mole fraction)
in 1-bromopropane, 280.6 K | 0.0756
in 1-bromopropane, 283.8 K | 0.0997
in 1-bromopropane, 287.8 K | 0.15
in 1-bromopropane, 289.9 K | 0.185
in 1-bromopropane, 293.1 K | 0.239
in 1-bromopropane, 295.2 K | 0.275
in 1-bromopropane, 298.8 K | 0.34
in 1-bromopropane, 301.4 K | 0.404
in 1-bromopropane, 304.3 K | 0.473
in 1-bromopropane, 305.3 K | 0.528
in 1-bromopropane, 307.3 K | 0.573
in 1-bromopropane, 309.3 K | 0.645
in 1-bromopropane, 310.5 K | 0.709
in 1-bromopropane, 312.5 K | 0.775
in 1-bromopropane, 313.8 K | 0.859
in acetone, 286.6 K | 0.0794
in acetone, 290.1 K | 0.107
in acetone, 293.1 K | 0.146
in acetone, 293.3 K | 0.146
in acetone, 298 K | 0.224
in acetone, 299.9 K | 0.283
in acetone, 301.9 K | 0.34
in acetone, 303.4 K | 0.389
in acetone, 305.1 K | 0.449
in acetone, 306.7 K | 0.512
in acetone, 308.1 K | 0.568
in acetone, 310.9 K | 0.678
in acetone, 312 K | 0.735
in acetone, 313 K | 0.795
in acetone, 314.4 K | 0.857
in acetone, 315.2 K | 0.895
in isopropanol, 279.2 K | 0.0797
in isopropanol, 282.7 K | 0.104
in isopropanol, 285.9 K | 0.13
in isopropanol, 289.1 K | 0.164
in isopropanol, 293.1 K | 0.22
in isopropanol, 297.1 K | 0.283
in isopropanol, 301 K | 0.361
in isopropanol, 303 K | 0.409
in isopropanol, 304.4 K | 0.458
in isopropanol, 306.1 K | 0.513
in isopropanol, 308.1 K | 0.568
in isopropanol, 309.8 K | 0.648
in isopropanol, 311.2 K | 0.712
in isopropanol, 312.6 K | 0.777
in isopropanol, 314.1 K | 0.842
in isopropanol, 314.9 K | 0.896
in n-hexane, 279.9 K | 0.0292
in n-hexane, 282.5 K | 0.0408
in n-hexane, 283.6 K | 0.0502
in n-hexane, 286.9 K | 0.0736
in n-hexane, 289.7 K | 0.108
in n-hexane, 291.7 K | 0.134
in n-hexane, 293.9 K | 0.171
in n-hexane, 296.4 K | 0.223
in n-hexane, 297.5 K | 0.252
in n-hexane, 300.1 K | 0.322
in n-hexane, 301.8 K | 0.38
in n-hexane, 303.8 K | 0.442
in n-hexane, 305.9 K | 0.519
in n-hexane, 308 K | 0.593
in n-hexane, 311 K | 0.711
in n-hexane, 312.5 K | 0.777
in n-hexane, 314.2 K | 0.858
in n-propanol, 287.1 K | 0.13
in n-propanol, 289.6 K | 0.153
in n-propanol, 292.8 K | 0.192
in n-propanol, 295.1 K | 0.225
in n-propanol, 297.9 K | 0.275
in n-propanol, 299.9 K | 0.318
in n-propanol, 301.5 K | 0.353
in n-propanol, 303.5 K | 0.406
in n-propanol, 304.7 K | 0.44
in n-propanol, 306.5 K | 0.509
in n-propanol, 307.4 K | 0.541
in n-propanol, 308.7 K | 0.597
in n-propanol, 309.9 K | 0.644
in n-propanol, 310.7 K | 0.69
in n-propanol, 312.1 K | 0.749
in n-propanol, 313.4 K | 0.818
in n-propanol, 314.2 K | 0.873
in trichloroethylene, 282 K | 0.144
in trichloroethylene, 283.1 K | 0.157
in trichloroethylene, 284.6 K | 0.171
in trichloroethylene, 288.4 K | 0.216
in trichloroethylene, 291 K | 0.258
in trichloroethylene, 293 K | 0.295
in trichloroethylene, 296 K | 0.337
in trichloroethylene, 298.2 K | 0.389
in trichloroethylene, 301.2 K | 0.441
in trichloroethylene, 303.3 K | 0.516
in trichloroethylene, 306.7 K | 0.591
in trichloroethylene, 308.6 K | 0.666
in trichloroethylene, 310.5 K | 0.725
in trichloroethylene, 312.5 K | 0.806
in trichloroethylene, 313.5 K | 0.855
